Values quoted from earlier work as cited in US20090093865A1, “METHOD AND SYSTEM FOR CONTROLLING THE SPREAD OF MICROORGANISMS AMONG SUBJECTS IN A GROUP” (priority 2006, published 2009).

Tested on: methicillin-resistant Staphylococcus aureus
Settings: randomized controlled trial of mupirocin versus placebo (Harbarth et al. 1999)

C/C(=C\C(=O)OCCCCCCCCC(=O)O)C[C@@H]1OC[C@H](C[C@@H]2O[C@H]2[C@@H](C)[C@H](C)O)[C@@H](O)[C@H]1O [mupirocin]
carriers in whom methicillin-resistant S. aureus was successfully eradicated: 44%
